Results as given in ChEMBL document CHEMBL5331134, “Identification of Brain-Penetrant ATP-Competitive mTOR Inhibitors for CNS Syndromes” (J Med Chem, 2023).

How the values were obtained:
[1] = In vivo inhibition of phosphorylation of S6 at serine 240/244 residues in C57BL/6 mouse brain at 3 to 10 mg/kg, po measured after 8 hrs by Western blotting analysis; assay type: organism-based; details: dose 3-10 mg/kg
[2] = In vivo inhibition of phosphorylation of AKT at serine 473 residues in C57BL/6 mouse brain at 10 mg/kg, po measured after 8 hrs by Western blotting analysis; assay type: organism-based
[3] = Drug concentration in C57BL/6 mouse brain at 1 mg/kg, po measured after 1 hr; assay type: ADME, organism-based; details: read-out: Ct
[4] = Ratio of drug concentration in brain to plasma in C57BL/6 mouse at 1 mg/kg, po measured at 1 hr; assay type: ADME, organism-based; details: read-out: BPR
[5] = Drug concentration in C57BL/6 mouse brain at 3 mg/kg, po measured after 1 hr; assay type: ADME, organism-based; details: read-out: Ct
[6] = Drug concentration in C57BL/6 mouse plasma at 3 mg/kg, po measured after 1 hr; assay type: ADME, organism-based
[7] = Drug concentration in C57BL/6 mouse brain at 1 mg/kg, po measured after 3 hrs; assay type: ADME, organism-based; details: read-out: Ct
[8] = Drug concentration in C57BL/6 mouse plasma at 1 mg/kg, po measured after 3 hrs; assay type: ADME, organism-based
[9] = Ratio of drug concentration in brain to plasma in C57BL/6 mouse at 1 mg/kg, po measured at 3 hrs; assay type: ADME, organism-based; details: read-out: BPR
[10] = Drug concentration in C57BL/6 mouse brain at 3 mg/kg, po measured after 3 hrs; assay type: ADME, organism-based; details: read-out: Ct
[11] = Ratio of drug concentration in brain to plasma in C57BL/6 mouse at 3 mg/kg, po measured at 3 hrs; assay type: ADME, organism-based; details: read-out: BPR
[12] = Drug concentration in C57BL/6 mouse brain at 1 mg/kg, po measured after 8 hrs; assay type: ADME, organism-based; details: read-out: Ct
[13] = Drug concentration in C57BL/6 mouse plasma at 1 mg/kg, po measured after 8 hrs; assay type: ADME, organism-based
[14] = Ratio of drug concentration in brain to plasma in C57BL/6 mouse at 1 mg/kg, po measured at 8 hrs; assay type: ADME, organism-based; details: read-out: BPR
[15] = Drug concentration in C57BL/6 mouse brain at 3 mg/kg, po measured after 8 hrs; assay type: ADME, organism-based; details: read-out: Ct
[16] = Drug concentration in C57BL/6 mouse plasma at 3 mg/kg, po measured after 8 hrs; assay type: ADME, organism-based
[17] = Ratio of drug concentration in brain to plasma in C57BL/6 mouse at 3 mg/kg, po measured at 8 hrs; assay type: ADME, organism-based; details: read-out: BPR
[18] = Drug concentration in C57BL/6 mouse brain at 10 mg/kg, po measured after 8 hrs; assay type: ADME, organism-based; details: read-out: Ct
[19] = Drug concentration in C57BL/6 mouse plasma at 10 mg/kg, po measured after 8 hrs; assay type: ADME, organism-based
[20] = Ratio of drug concentration in brain to plasma in C57BL/6 mouse at 10 mg/kg, po measured at 8 hrs; assay type: ADME, organism-based; details: read-out: BPR
[21] = Drug concentration in C57BL/6 mouse brain at 30 mg/kg, po measured after 8 hrs; assay type: ADME, organism-based; details: read-out: Ct
[22] = Drug concentration in C57BL/6 mouse plasma at 30 mg/kg, po measured after 8 hrs; assay type: ADME, organism-based
[23] = Ratio of drug concentration in brain to plasma in C57BL/6 mouse at 30 mg/kg, po measured at 8 hrs; assay type: ADME, organism-based; details: read-out: BPR
[24] = Drug concentration in C57BL/6 mouse brain at 1 mg/kg, po measured after 24 hrs; assay type: ADME, organism-based; details: read-out: Ct
[25] = Drug concentration in C57BL/6 mouse plasma at 1 mg/kg, po measured after 24 hrs; assay type: ADME, organism-based
[26] = Ratio of drug concentration in brain to plasma in C57BL/6 mouse at 1 mg/kg, po measured after 24 hrs; assay type: ADME, organism-based; details: read-out: BPR
[27] = Drug concentration in C57BL/6 mouse brain at 3 mg/kg, po measured after 24 hrs; assay type: ADME, organism-based; details: read-out: Ct
[28] = Ratio of drug concentration in brain to plasma in C57BL/6 mouse at 3 mg/kg, po measured after 24 hrs; assay type: ADME, organism-based; details: read-out: BPR
[29] = Ratio of drug concentration in brain to plasma in C57BL/6 mouse at 10 mg/kg, po measured at 24 hrs; assay type: ADME, organism-based; details: brain and plasma, read-out: BPR
[30] = Cmax in cynomolgus monkey at 1 mg/kg, po measured upto 24 hrs by LC/MS/MS analysis; assay type: ADME, organism-based, Macaca fascicularis; parameters: time < 24 hrs, dose 1 mg/kg, route po; details: in vivo
[31] = AUC(0 to t) in cynomolgus monkey at 1 mg/kg, po measured upto 24 hrs by LC/MS/MS analysis; assay type: ADME, organism-based, Macaca fascicularis; parameters: time < 24 hrs, dose 1 mg/kg, route po; details: in vivo
[32] = Tmax in cynomolgus monkey at 1 mg/kg, po and 0.1 mg/kg, iv measured upto 24 hrs by LC/MS/MS analysis; assay type: ADME, organism-based, Macaca fascicularis; details: in vivo
[33] = Half life in cynomolgus monkey at 1 mg/kg, po and 0.1 mg/kg, iv measured upto 24 hrs by LC/MS/MS analysis; assay type: ADME, organism-based, Macaca fascicularis; details: in vivo
[34] = MRT(0 to t) in cynomolgus monkey at 1 mg/kg, po and 0.1 mg/kg, iv measured upto 24 hrs by LC/MS/MS analysis; assay type: ADME, organism-based, Macaca fascicularis; details: in vivo
[35] = Phototoxicity against mouse BALB/3T3 clone A31 cells assessed as photo-irradiation factor incubated for 1 hr followed by irradiated with 5 J/cm^2 of light dose measured after 24 hrs by neutral red uptake assay; assay type: toxicity, cell-based; details: balb/3t3 clone a31, 1 h
[36] = In vivo inhibition of phosphorylation of AKT at serine 473 residues in C57BL/6 mouse brain at 10 to 30 mg/kg, po measured after 3 hrs by Western blotting analysis; assay type: organism-based; details: dose 10-30 mg/kg
[37] = In vivo inhibition of phosphorylation of AKT at serine 473 residues in C57BL/6 mouse brain at 10 to 30 mg/kg, po measured after 24 hrs by Western blotting analysis; assay type: organism-based; details: dose 10-30 mg/kg
[38] = AUC(0 to t) in Beagle dog at 0.3 mg/kg, iv measured upto 24 hrs by LC/MS/MS analysis; assay type: ADME, organism-based, Canis lupus familiaris; parameters: time < 24 hrs, dose 0.3 mg/kg, route iv; details: in vivo
[39] = AUC(0 to t) in Beagle dog at 1 mg/kg, po measured upto 24 hrs by LC/MS/MS analysis; assay type: ADME, organism-based, Canis lupus familiaris; parameters: time < 24 hrs, dose 1 mg/kg, route po; details: in vivo
[40] = Cmax in Beagle dog at 1 mg/kg, po measured upto 24 hrs by LC/MS/MS analysis; assay type: ADME, organism-based, Canis lupus familiaris; parameters: dose 1 mg/kg, time < 24 hrs, route po; details: in vivo
[41] = Tmax in Beagle dog at 1 mg/kg, po and 0.3 mg/kg, iv measured upto 24 hrs by LC/MS/MS analysis; assay type: ADME, organism-based, Canis lupus familiaris; details: in vivo
[42] = Bioavailability in Beagle dog at 1 mg/kg, po and 0.3 mg/kg, iv measured upto 24 hrs by LC/MS/MS analysis; assay type: ADME, organism-based, Canis lupus familiaris; details: in vivo
[43] = Volume of distribution at steady state in Beagle dog at 1 mg/kg, po and 0.3 mg/kg, iv measured upto 24 hrs by LC/MS/MS analysis; assay type: ADME, organism-based, Canis lupus familiaris; details: in vivo
[44] = MRT(0 to t) in Beagle dog at 1 mg/kg, po and 0.3 mg/kg, iv measured upto 24 hrs by LC/MS/MS analysis; assay type: ADME, organism-based, Canis lupus familiaris; details: in vivo
[45] = Cmax in cynomolgus monkey at 0.3 mg/kg, po measured upto 24 hrs by LC/MS/MS analysis; assay type: ADME, organism-based, Macaca fascicularis; parameters: dose 0.3 mg/kg, time < 24 hrs, route po; details: in vivo
[46] = Tmax in cynomolgus monkey at 0.3 mg/kg, po measured upto 24 hrs by LC/MS/MS analysis; assay type: ADME, organism-based, Macaca fascicularis; details: in vivo

## C[C@@H]1COCCN1c1cc(N2CCOC[C@@H]2C)nc2[nH]c(-c3cscn3)nc12
[1]
  inhibition (INH): Active
[2]
  inhibition (INH): Active
[3]
  concentration at 1 h: 0.388 µM
[4]
  Kp at 1 h: 0.51
[5]
  concentration at 1 h: 1.4 µM
[6]
  concentration at 1 h: 2.75 µM
[7]
  concentration at 3 h: 0.24 µM
[8]
  concentration at 3 h: 0.674 µM
[9]
  Kp at 3 h: 0.36
[10]
  concentration at 3 h: 0.93 µM
[11]
  Kp at 3 h: 0.45
[12]
  concentration at 8 h: 0.09 µM
[13]
  concentration at 8 h: 0.246 µM
[14]
  Kp at 8 h: 0.37
[15]
  concentration at 8 h: 0.341 µM
[16]
  concentration at 8 h: 1.19 µM
[17]
  Kp at 8 h: 0.29
[18]
  concentration at 8 h: 0.23 µM
[19]
  concentration at 8 h: 0.406 µM
[20]
  Kp at 8 h: 0.57
[21]
  concentration at 8 h: 0.462 µM
[22]
  concentration at 8 h: 0.633 µM
[23]
  Kp at 8 h: 0.73
[24]
  concentration at 24 h: 0.007 µM
[25]
  concentration at 24 h: 0.004 µM
[26]
  Kp at 24 h: 1.91
[27]
  concentration at 24 h: 0.005 µM
[28]
  Kp at 24 h: 0.84
[29]
  Kp at 24 h: 0.62
[30]
  Cmax: 0.468 µM
[31]
  AUC(0-t) at 24 h: 3760 nM·h
[32]
  Tmax: 1.2 h
[33]
  half-life: 5 h
[34]
  MRT last at 24 h: 4.2 h

## C[C@@H]1COCCN1c1cc(N2CCOC[C@@H]2C)nc2[nH]c(-c3ccccn3)nc12
[35]
  Activity: 1
[36]
  inhibition (INH): Active
[37]
  inhibition (INH): Not Active
[38]
  AUC(0-t) at 24 h: 147 nM·h
[39]
  AUC(0-t) at 24 h: 56 nM·h
[40]
  Cmax: 0.034 µM
[41]
  Tmax: 0.8 h
[42]
  bioavailability: 11%
[43]
  Vdss: 4.3 L/kg
[44]
  MRT last at 24 h: 0.9 h
[45]
  Cmax: 0.013 µM
[46]
  Tmax: 1.2 h
